Assay results: patent publication US10327423B2, “Antimicrobial compounds and compositions, and uses thereof” (Akeso Biomedical, Inc., priority 2014, dated 2019)
Entries after “also recorded” stand apart in the source; their conditions may differ.

Tests used:
[1] = system: Camyplobacter jejuni NCTC 11168; experiment: Motility on brain-heart infusion plate; assay type: cell-based, Campylobacter jejuni; conditions: FeQ 34 μM; 43 hours
Protocol: Camyplobacter jejuni NCTC 11168 was treated with FeQ (34 μM) and a plate containing brain-heart infusion (BHI) medium inoculated with […], 2×10^5 colony forming units of the treated bacteria and the plate was cultured for 43 hours. The growth and motility of the bacteria after treatment with FeQ was compared to a positive control where the bacteria had not been treated with FeQ, and also to a negative control where no bacteria were applied to a plate of the BHI medium. […] In contrast, Campylobacter jejuni that was not treated with FeQ was motile, and spread around the culture plate. There was no growth visible, as expected, on the plates that were not inoculated with bacteria.

[2] = system: Enterococcus faecalis NCTC 12697; experiment: Biofilm formation on plastic coated UV beads; assay type: cell-based; conditions: different concentrations of Fe-QA; T=24 h
Protocol: Bacteria (Enterococcus faecalis NCTC 12697, Staphylococcus epidermidis F1513 and Staphylococcus aureus ATCC 25923) were grown on Brain heart infusion (BHI) passaged to new medium either containing Fe-QA or alone. Growth suspensions were prepared at 0.0001 OD/ml and then allowed to grow at 37° C. under normal atmospheric conditions for 24 h in BHI with plastic coated UV beads (Lascells). […], 10 μl suspension was serially diluted 10 fold to 10-3, 10-4, 10-5, 10-6, 10-7, 10-8. For each dilution, 10 μl was spotted on BHI agar plates and colonies counted after 24 h. The beads were also removed washed in PBS before adding to 1 ml PBS. After vortex mixing, 10 μl of the cell suspension was serially diluted as above and cell counts carried out.

[3] = Growth performance of broilers challenged with Campylobacter dirty litter at day 20; assay type: in vivo, chicken (Ross 308 male broilers); conditions: treatment groups 3, 5, 6, 7 (FeQ) and 8 (FeTyr)
Protocol: A study was performed to evaluate growth promotion and reduction of Campylobacter carriage using FeQ and FeTyr in Ross 308 male broilers with 7 treatment groups. Each treatment group comprised four replicates of 10 birds per pen (40 birds/treatment group and 4 pens of 10 birds/treatment group), and there were 2 control groups and 5 test groups. All the test groups and one of the control groups were exposed at day 20 of the trial to dirty litter, which tested positive for Campylobacter. This method was used to provide a more natural method to Campylobacter challenge the birds. Thus there was a positive control where one treatment group was challenged with Campylobacter and one negative control group where the birds were not challenged, and five treatment groups that were all challenged with Campylobacter. The total number of birds used in the 7 treatment groups was 280. Treatment group 1 was a negative control where birds just received the commercial feed, and were not challenged with dirty litter containing Campylobacter. Treatment group 2 was the positive control where the birds received the commercial feed, and were challenged with dirty litter containing Campylobacter at day 20. Treatment group 3 received 0.22 g/L of FeQ in their drinking water and 0.22 g/Kg FeQ in their feed during the entire trial, and was challenged with dirty litter containing Campylobacter at day 20. Treatment group 5 received 0.22 g/L of FeQ in their drinking water during the entire trial, and was challenged with dirty litter containing Campylobacter at day 20. Treatment group 6 received 0.22 g/kg FeQ in their feed during the entire trial, and was challenged with dirty litter containing Campylobacter at day 20. Treatment group 7 received 0.022 g/L FeQ in their drinking water during the entire trial, and was challenged with dirty litter containing Campylobacter at day 20. Treatment group 8 received 0.02 g/L FeTyr in their drinking water during the entire trial, and was challenged with dirty litter containing Campylobacter at day 20. The FeTyr was pre-dissolved in DMSO, and diluted to provide a solution of 0.02 g/L of FeTyr in water. (An additional treatment group 4 was terminated due to solubility issues.) […]
The feeding program is show in Table 4. […] All birds were weighed individually and feed weigh backs recorded per pen at day 0, 11, 21, 24 and 42 days.
In order to minimize risk of cross-contamination, standard industry biosecurity measures were used including: disinfecting boots, changing overshoes and gloves between pens/treatments, entering Campylobacter negative pens before entering Campylobacter positive pens, and leaving adjacent pens empty. Daily health, culls, and mortality were recorded. All bird weights were recorded at 0, 11, 21, 24, 33 and 42 days. […]

[4] = system: bacterial flora present in the mouth; experiment: Biofilm formation on extracted human teeth (CEPLAC staining); assay type: cell-based; conditions: FeQ 340 μM; 48 hours of culturing
Protocol: Molar teeth were extracted from human patients, and mouth swabs taken from each patient to obtain samples of each patient's bacterial flora present in the mouth. The mouth swabs were cultured in the laboratory using LB media in order to grow bacterial populations ordinarily present in the mouth of each patient. The extracted teeth were washed and brushed extensively using PBS buffer and ethanol. Each patient's tooth was then placed in the bacterial culture prepared from that patient's bacterial flora sample, and cultured aerobically for 24 hours in LB media. The teeth were then stained with CEPLAC™ (Manx Healthcare Ltd, Warwick, UK), and washed three times with PBS-Tween (50 mL) to determine if biofilm had been formed on the teeth.
All teeth stained red indicating the presence of biofilm on the teeth after just 24 hours. The same teeth were then cleaned using PBS buffer and ethanol, and the procedure repeated except with 48 hours of culturing in the presence of FeQ (340 μM).

[5] = system: kanamycin resistant strain of Enteropathogenic E. coli EPEC (E2348/69); experiment: Growth of kanamycin resistant EPEC with Fe-QA and kanamycin (patch on growth plate, growth curve); assay type: cell-based, Escherichia coli
Protocol: A kanamycin resistance gene was introduced into the genome of Enteropathogenic E. coli EPEC, (E2348/69), genotype; Wildtype EPEC-O-17:H6 allowing the kanamycin resistant strain of EPEC to grow in the presence of a patch that has been immersed in kanamycin (at a concentration of 50 μg/mL). The kanamycin resistant strain of EPEC was then immersed in a patch in a solution of Fe-QA.

[6] = Treatment of an acne patient; assay type: in vivo, human
Protocol: A patient was treated continuously for 30 days by applying a solution of ferric quinate (340 μM) to their acne vulgarism (“acne”) once each day. Within 5 days of the start of treatment, their acne, which had not previously responded to treatment with antibiotics, began to show signs of healing.

## O=C1[O][Fe]23([O]C(=O)[C@]4(C[C@@H](O)[C@H](O)[C@H](O)C4)[O]2)([O]C(=O)[C@]2(C[C@@H](O)[C@H](O)[C@H](O)C2)[O]3)[O][C@@]12C[C@@H](O)[C@H](O)[C@H](O)C2 [FeQ, a complex of quinic acid with Fe III]
[1]
  motility of bacteria on BHI plate: not motile
[2]
  biofilm formation on plastic coated UV beads: inhibited
[3]
  ABW at day 42 versus positive control (challenged, untreated): performed better than the positive control
  MFCR at day 42 versus positive control (challenged, untreated): performed better than the positive control
[4]
  biofilm on human teeth (red CEPLAC staining): no teeth stained red
[5]; kanamycin and Fe-QA
  rate of growth (growth curve) relative to kanamycin alone: inhibited
[5]; medium only containing Fe-QA
  rate of growth (growth curve): most rapid growth
[5]; patch immersed in Fe-QA alone
  bacterial growth on plate around patch: no impact on the growth; also recorded: no significant effect on bacterial growth
[5]; patch immersed in Fe-QA and kanamycin (50 μg/mL)
  bacterial growth on plate around patch: fail to grow
[6]; ferric quinate solution 340 μM once each day
  state of acne after treatment for 30 days: completely healed
[6]; ferric quinate solution 340 μM once each day for 30 days
  recurrence of acne after discontinuation of treatment for over one year: did not recur
